Read-outs that look alike come from different tables or passages of the source.
Tests used:
ECL1002 [1] = assay: Aztreonam potentiation (MPC@4); type: cell-based; conditions: minimum BLI concentration inhibiting growth with 4 μg/mL aztreonam
SHV-5 ec308 [2] = type: cell-based; conditions: for TIG MPC4 SHV-5 ec308: minimum BLI concentration inhibiting growth with tigemonam at 4 μg/mL
SHV-5 ec308 [3] = assay: Aztreonam potentiation (MPC@4); type: cell-based; conditions: minimum BLI concentration inhibiting growth with 4 μg/mL aztreonam
[4] = Intravenous pharmacokinetics; type: in vivo; conditions: rat, plasma, rats, IV infusion over 0.5 hours, read-out: Free Cl (converted)
Procedure: Rats (n=3 per compound) were administered by a single infusion. IV doses were infused over 0.5 hours via an indwelling femoral vein cannula. Plasma (˜0.3 mL) samples were collected from each rat at designated time points up to 24 hours. Blood samples were centrifuged within 5 min of collection at 12000 g for 5 min to obtain plasma. The plasma samples were stored at −80° C. until analyzed. Data were analyzed using WinNonlin.

OXA-48 KP1086 = assay: Biapenem potentiation (MPC@1); type: cell-based; conditions: minimum BLI concentration inhibiting growth with 1 μg/mL biapenem
Procedure: (§1) Biapenem was present in the test medium at 1 μg/mL. […] Table 3 summarizes the BLI potency of biapenem potentiation (MPC@1) for two strains overexpressing class A (KPC) and class D (OXA-48) carbapenemases. Biapenem MIC for each strain is also shown.

KP1004 KPC-2 = assay: Biapenem potentiation (MPC@1); type: cell-based; conditions: minimum BLI concentration inhibiting growth with 1 μg/mL biapenem
Procedure: as §1

CMY-6 EC1010 [5] = assay: Aztreonam potentiation (MPC@4); type: cell-based; conditions: minimum BLI concentration inhibiting growth with 4 μg/mL aztreonam
CTX-M-15 KP1009 [6] = type: cell-based
KPC-2 KP1004 = assay: Aztreonam potentiation (MPC@4); type: cell-based; conditions: minimum BLI concentration inhibiting growth with 4 μg/mL aztreonam
ECL1002 [7] = type: cell-based; conditions: for TIG MPC4 ECL1002: minimum BLI concentration inhibiting growth with tigemonam at 4 μg/mL
CTX-M-15 KP1009 [8] = assay: Aztreonam potentiation (MPC@4); type: cell-based; conditions: minimum BLI concentration inhibiting growth with 4 μg/mL aztreonam
CTX-M-14 KP1005 [9] = type: cell-based
SHV-12 = SHV-12 (Klebsiella pneumoniae, UniProt P0AD64, E235K/G234S/L31Q); assay: Inhibition of nitrocefin cleavage by purified enzyme (Ki); type: biochemical
SHV-12, sequence (P0AD64 22-286 L31Q/G234S/E235K): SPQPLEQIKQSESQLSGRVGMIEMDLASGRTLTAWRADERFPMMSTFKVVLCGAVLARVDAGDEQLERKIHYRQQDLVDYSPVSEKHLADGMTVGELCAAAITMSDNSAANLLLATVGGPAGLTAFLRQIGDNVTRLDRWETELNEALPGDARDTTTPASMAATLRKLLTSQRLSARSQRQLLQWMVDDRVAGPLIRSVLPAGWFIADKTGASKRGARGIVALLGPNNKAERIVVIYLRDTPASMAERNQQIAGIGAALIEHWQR
Summary of the method: (§2)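 10 min RT preincubation, enzyme with inhibitor series in reaction buffer. Substrate nitrocefin; kinetic read 490 nm, 10 sec intervals, 10 min total.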

OXA-48 = OXA-48 (Klebsiella pneumoniae, UniProt Q6XEC0); assay: as above; type: biochemical; conditions: nitrocefin reporter substrate, 10 min preincubation; read-out: Ki (OXA-48, NCF)
OXA-48, sequence (Q6XEC0 23-265 limits assumed): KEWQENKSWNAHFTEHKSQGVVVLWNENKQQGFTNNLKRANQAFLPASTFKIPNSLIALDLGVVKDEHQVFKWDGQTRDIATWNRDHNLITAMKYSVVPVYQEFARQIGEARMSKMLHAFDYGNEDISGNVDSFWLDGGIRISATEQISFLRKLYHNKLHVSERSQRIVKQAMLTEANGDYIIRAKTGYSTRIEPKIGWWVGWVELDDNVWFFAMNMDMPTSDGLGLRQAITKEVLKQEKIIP
Summary of the method: as §2

TEM-10 ec302 [10] = type: cell-based
CMY-6 EC1010 [11] = type: cell-based
TEM-10 ec302 [12] = assay: Aztreonam potentiation (MPC@4); type: cell-based; conditions: minimum BLI concentration inhibiting growth with 4 μg/mL aztreonam
CTX-M-14 KP1005 [13] = assay: Aztreonam potentiation (MPC@4); type: cell-based; conditions: minimum BLI concentration inhibiting growth with 4 μg/mL aztreonam
KPC-2 = KPC-2 (Klebsiella pneumoniae, UniProt Q9F663); assay: Inhibition of nitrocefin cleavage by purified enzyme (Ki); type: biochemical; conditions: nitrocefin reporter substrate, 10 min preincubation; read-out: Ki (KPC-2, NCF)
KPC-2, sequence (Q9F663 25-293 limits assumed): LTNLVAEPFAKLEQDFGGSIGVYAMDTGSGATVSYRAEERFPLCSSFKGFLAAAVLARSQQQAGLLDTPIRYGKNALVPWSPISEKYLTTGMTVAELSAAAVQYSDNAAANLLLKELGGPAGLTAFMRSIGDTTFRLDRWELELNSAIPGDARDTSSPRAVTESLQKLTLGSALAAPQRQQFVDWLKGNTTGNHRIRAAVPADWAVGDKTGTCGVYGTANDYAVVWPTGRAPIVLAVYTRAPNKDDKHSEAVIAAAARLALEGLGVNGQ
Summary of the method: as §2

P99 = P99 (Enterobacter cloacae, UniProt P05364); assay: as above; type: biochemical; conditions: nitrocefin reporter substrate, 10 min preincubation; read-out: Ki (P99, NCF)
P99, sequence (P05364 21-381): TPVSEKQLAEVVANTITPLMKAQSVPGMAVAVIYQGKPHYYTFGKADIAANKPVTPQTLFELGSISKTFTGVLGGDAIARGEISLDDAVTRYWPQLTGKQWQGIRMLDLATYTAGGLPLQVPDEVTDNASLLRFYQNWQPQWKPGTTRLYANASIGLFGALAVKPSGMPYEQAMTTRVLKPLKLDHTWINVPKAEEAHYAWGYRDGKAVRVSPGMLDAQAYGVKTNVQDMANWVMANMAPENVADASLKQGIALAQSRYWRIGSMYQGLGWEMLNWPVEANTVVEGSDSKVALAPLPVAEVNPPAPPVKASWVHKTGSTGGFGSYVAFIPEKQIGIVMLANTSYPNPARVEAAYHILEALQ
Summary of the method: as §2

CTX-M-14 = CTX-M-14 (Escherichia coli, UniProt Q9L5C7); assay: as above; type: biochemical; conditions: nitrocefin reporter substrate, 10 min preincubation; read-out: Ki (CTX-M-14, NCF)
CTX-M-14, sequence (Q9L5C7 entry or part of it): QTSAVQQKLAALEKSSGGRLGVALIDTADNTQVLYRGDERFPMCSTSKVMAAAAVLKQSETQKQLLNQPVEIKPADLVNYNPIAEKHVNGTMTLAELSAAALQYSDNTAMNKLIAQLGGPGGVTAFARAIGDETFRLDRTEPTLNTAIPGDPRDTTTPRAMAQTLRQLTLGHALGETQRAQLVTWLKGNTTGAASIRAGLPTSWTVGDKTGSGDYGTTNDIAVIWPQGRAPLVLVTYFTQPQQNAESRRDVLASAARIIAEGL
Summary of the method: as §2

[14] = Salt/complex formation to maintain the monomeric form (solution pH, monomer by HPLC); type: physicochemical
Procedure: The effect of additives that would form a salt or complex with the boronic acid derivatives was evaluated in order to identify those that would strongly favor the monomeric form at an acceptable pH for IV infusion (pH 4-8). […] The pH of the resulting homogeneous solution was measured with a pH meter and the purity was monitored by HPLC. Several bases and complexing agents were screened to identify those that would afford the highest monomer content as salt/complex with a desired pH. […] Oligomerization was more pronounced at higher concentrations with some bases and complexing agents. Among all the bases screened, the meglumine complex gave the highest percentage of monomeric form at the desired pH.

[15] = Compound 13 2 mg/mL in water, Pyridine-2-methanol, 2 equivalents
[16] = Compound 13 3 mg/mL in water, L-Lysine, 2 equivalents
[17] = Compound 13 10 mg/mL in water, 0.5N NaOH, 1 equivalent
[18] = Compound 13 10 mg/mL in water, 0.5N NaOH, 2 equivalents
[19] = Compound 13 10 mg/mL in water, Diethanolamine, 2 equivalents
[20] = Compound 13 10 mg/mL in water, Ethanolamine, 2 equivalents
[21] = Compound 13 10 mg/mL in water, Tris, 2 equivalents
[22] = Compound 13 50 mg/mL in water, Tris, 2 equivalents
[23] = Compound 13 50 mg/mL in water, Tris, 3 equivalents

## NC(=O)CC(=O)N[C@H]1Cc2cccc(C(=O)O)c2OB1O [Compound 16, (R)-3-(3-amino-3-oxopropanamido)-2-hydroxy-3,4-dihydro-2H-benzo[e][1,2]oxaborinine-8-carboxylic acid]
ECL1002 [1]
  AZT MPC4 ECL1002: X (MIC of less than 1 μg/mL)
SHV-5 ec308 [2]
  TIG MPC4 SHV-5 ec308: Y (MIC of 1 μg/mL to 10 μg/mL)
SHV-5 ec308 [3]
  AZT MPC4 SHV-5 ec308: X (MIC of less than 1 μg/mL)
[4]; dose 10 mg/kg
  clearance: 14.5 mL/min/kg
OXA-48 KP1086
  BPM MPC1 OXA-48 KP1086: Y (MIC of 1 μg/mL to 10 μg/mL)
KP1004 KPC-2
  BPM MPC1 KP1004 KPC-2: X (MIC of less than 1 μg/mL)
CMY-6 EC1010 [5]
  AZT MPC4 CMY-6 EC1010: X (MIC of less than 1 μg/mL)
CTX-M-15 KP1009 [6]
  TIG MPC4 CTX-M-15 KP1009: X (key: X: MIC of less than 1 μg/mL; Y: MIC of 1 μg/mL to 10 μg/mL; Z: MIC of greater than 10 μg/mL)
KPC-2 KP1004
  AZT MPC4 KPC-2 KP1004: Y (MIC of 1 μg/mL to 10 μg/mL)
ECL1002 [7]
  TIG MPC4 ECL1002: X (MIC of less than 1 μg/mL)
CTX-M-15 KP1009 [8]
  AZT MPC4 CTX-M-15 KP1009: X (MIC of less than 1 μg/mL)
CTX-M-14 KP1005 [9]
  TIG MPC4 CTX-M-14 KP1005: Y (key: X: MIC of less than 1 μg/mL; Y: MIC of 1 μg/mL to 10 μg/mL; Z: MIC of greater than 10 μg/mL)
SHV-12; nitrocefin reporter substrate, 10 min preincubation, read-out: Ki (SHV-12, NCF)
  Ki: < 1 nM
OXA-48
  Ki: < 1 nM

## CC1(C)[C@H](NC(=O)/C(=N\OCC(=O)O)c2csc(N)n2)C(=O)N1OS(=O)(=O)O [Tigemonam, reference compound]
SHV-5 ec308 [2]; strain SHV-5 ec308, tigemonam alone
  Tigemonam MIC: >64 µg/mL
TEM-10 ec302 [10]; strain TEM-10 ec302, tigemonam alone
  Tigemonam MIC: >64 µg/mL
CTX-M-15 KP1009 [6]; strain CTX-M-15 KP1009, tigemonam alone
  Tigemonam MIC: >64 µg/mL
ECL1002 [7]; strain ECL1002, tigemonam alone
  Tigemonam MIC: 32 µg/mL
CMY-6 EC1010 [11]; strain CMY-6 EC1010, tigemonam alone
  Tigemonam MIC: 16 µg/mL
CTX-M-14 KP1005 [9]; strain CTX-M-14 KP1005, tigemonam alone
  Tigemonam MIC: >64 µg/mL

## CNC(=O)CC(=O)N[C@H]1Cc2cccc(C(=O)O)c2OB1O [Compound 21, (R)-2-hydroxy-3-(3-(methylamino)-3-oxopropanamido)-3,4-dihydro-2H-benzo[e][1,2]oxaborinine-8-carboxylic acid]
ECL1002 [1]
  AZT MPC4 ECL1002: X (MIC of less than 1 μg/mL)
SHV-5 ec308 [2]
  TIG MPC4 SHV-5 ec308: Y (MIC of 1 μg/mL to 10 μg/mL)
TEM-10 ec302 [12]
  AZT MPC4 TEM-10 ec302: Y (MIC of 1 μg/mL to 10 μg/mL)
SHV-5 ec308 [3]
  AZT MPC4 SHV-5 ec308: X (MIC of less than 1 μg/mL)
CTX-M-14 KP1005 [13]
  AZT MPC4 CTX-M-14 KP1005: Y (MIC of 1 μg/mL to 10 μg/mL)
OXA-48 KP1086
  BPM MPC1 OXA-48 KP1086: Y (MIC of 1 μg/mL to 10 μg/mL)
KP1004 KPC-2
  BPM MPC1 KP1004 KPC-2: X (MIC of less than 1 μg/mL)
CMY-6 EC1010 [5]
  AZT MPC4 CMY-6 EC1010: X (MIC of less than 1 μg/mL)
CTX-M-15 KP1009 [6]
  TIG MPC4 CTX-M-15 KP1009: Y (key: X: MIC of less than 1 μg/mL; Y: MIC of 1 μg/mL to 10 μg/mL; Z: MIC of greater than 10 μg/mL)
KPC-2 KP1004
  AZT MPC4 KPC-2 KP1004: Y (MIC of 1 μg/mL to 10 μg/mL)
ECL1002 [7]
  TIG MPC4 ECL1002: X (MIC of less than 1 μg/mL)
CTX-M-15 KP1009 [8]
  AZT MPC4 CTX-M-15 KP1009: X (MIC of less than 1 μg/mL)
CMY-6 EC1010 [11]; minimum BLI concentration inhibiting growth with tigemonam at 4 μg/mL
  TIG MPC4 CMY-6 EC1010: X (MIC of less than 1 μg/mL)
CTX-M-14 KP1005 [9]
  TIG MPC4 CTX-M-14 KP1005: Y (key: X: MIC of less than 1 μg/mL; Y: MIC of 1 μg/mL to 10 μg/mL; Z: MIC of greater than 10 μg/mL)
SHV-12
  Ki: < 1 nM
KPC-2
  Ki: > 10 nM
OXA-48
  Ki: < 1 nM
P99
  Ki: 1 to 10 nM
CTX-M-14
  Ki: 1 to 10 nM

## CSCC(=O)N[C@H]1Cc2cccc(C(=O)O)c2OB1O [Compound 13, (R)-2-hydroxy-3-(2-(methylthio)acetamido)-3,4-dihydro-2H-benzo[e][1,2]oxaborinine-8-carboxylic acid]
ECL1002 [1]
  AZT MPC4 ECL1002: X (MIC of less than 1 μg/mL)
[14]; [15]
  Monomer purity by HPLC (%): 78%
  pH: 5.5
[14]; [16]
  Monomer purity by HPLC (%): 97.3%
  pH: 8.9
[14]; [17]
  Monomer purity by HPLC (%): 51.3%
  pH: 7.3
[14]; [18]
  Monomer purity by HPLC (%): 60.9%
  pH: 8.4
[14]; [19]
  Monomer purity by HPLC (%): 92.2%
  pH: 11
[14]; [20]
  Monomer purity by HPLC (%): 97.1%
  pH: 11
[14]; Compound 13 10 mg/mL in water, Meglumine, 2 equivalents
  pH: 7.1
[14]; [21]
  Monomer purity by HPLC (%): 94.7%
  pH: 7.8
[14]; Compound 13 50 mg/mL in water, Meglumine, 2 equivalents
  pH: 7.2
[14]; [22]
  Monomer purity by HPLC (%): 89.7%
  pH: 7.7
[14]; [23]
  Monomer purity by HPLC (%): 95.4%
  pH: 8.5
SHV-5 ec308 [2]
  TIG MPC4 SHV-5 ec308: X (MIC of less than 1 μg/mL)
SHV-5 ec308 [3]
  AZT MPC4 SHV-5 ec308: X (MIC of less than 1 μg/mL)
[4]; dose 20 mg/kg
  clearance: 41.2 mL/min/kg
TEM-10 ec302 [10]
  TIG MPC4 TEM-10 ec302: Y (key: X: MIC of less than 1 μg/mL; Y: MIC of 1 μg/mL to 10 μg/mL; Z: MIC of greater than 10 μg/mL)
OXA-48 KP1086
  BPM MPC1 OXA-48 KP1086: Y (MIC of 1 μg/mL to 10 μg/mL)
KP1004 KPC-2
  BPM MPC1 KP1004 KPC-2: X (MIC of less than 1 μg/mL)
CMY-6 EC1010 [5]
  AZT MPC4 CMY-6 EC1010: X (MIC of less than 1 μg/mL)
CTX-M-15 KP1009 [6]
  TIG MPC4 CTX-M-15 KP1009: X (key: X: MIC of less than 1 μg/mL; Y: MIC of 1 μg/mL to 10 μg/mL; Z: MIC of greater than 10 μg/mL)
KPC-2 KP1004
  AZT MPC4 KPC-2 KP1004: X (MIC of less than 1 μg/mL)
ECL1002 [7]
  TIG MPC4 ECL1002: X (MIC of less than 1 μg/mL)
CTX-M-15 KP1009 [8]
  AZT MPC4 CTX-M-15 KP1009: X (MIC of less than 1 μg/mL)
CTX-M-14 KP1005 [9]
  TIG MPC4 CTX-M-14 KP1005: X (key: X: MIC of less than 1 μg/mL; Y: MIC of 1 μg/mL to 10 μg/mL; Z: MIC of greater than 10 μg/mL)
